The test system of the experiment is ovalbumin-sensitized guinea pigs. As to the kind of experiment: Guinea pig allergic rhinitis model: intranasal pressure after nasal ovalbumin challenge. It is filed as in vivo. Conditions: single administration, 60 minutes prior to ovalbumin 1% challenge, AUC 0-30 min. The method, then:
Male Hartley guinea pigs (250-500 g) purchased from Charles River (St-Constant, Qc, Canada) were used. They were housed in a temperature and humidity controlled environment, in groups of four or five with food and water available ad libitum. Experimental procedures were approved by the Animal Care Committee at Merck Frosst Centre for Therapeutic Research, in accordance with the guidelines of the Canadian Council on Animal Care.
Sensitization: The animals were injected intrapeRitoneally with 0.5 ml of an ovalbumin solution (100 μg/ml) containing 100 mg/ml aluminum hydroxide in 0.9% saline. […]
Following the surgical preparation, gallamine (2 mg/kg, i.v.) was administered to suppress spontaneous breathing. […] The changes in the intranasal pressure were monitored through a pressure transducer (Validyne DP-45, membrane 6-26, Validyne Corp., Northridge, Calif.) connected to a side arm of the nasal cannula. Values were recorded every 5 seconds using a data acquisition system (Modular Instruments, Malvern, Pa.). […] The changes in intranasal pressure were recorded for 30 minutes following the nasal challenge, using the peak response.
The effects of test compounds were evaluated on the increased intranasal pressure following a nasal challenge with an aerosol of ovalbumin 1% for 3 minutes. […]

Take `C[S@+]([O-])c1cccc2c3c(n(Cc4ccc(Cl)cc4)c12)[C@@H](CC(=O)O)CCC3` [Compound I, 2-[(1R)-9-(4-chlorobenzyl)-8-((S)-methylsulfinyl)-2,3,4,9-tetrahydro-1H-carbazol-1-yl]acetic acid]: the “effect on the increase in intranasal pressure produced by aerosol of ovalbumin” value (1 mg/kg i.p.) was “no significant effect”.

As for `COc1ccc(CN(CCN(C)C)c2ccccn2)cc1` [mepyramine], the “effect on the increase in intranasal pressure produced by aerosol of ovalbumin” value (5 mg/kg i.p.) is “no significant effect”.

For the origin of these results see patent US20030055077A1, “Method and compositions for the treatment of allergic conditions using pgd2 receptor antagonists” (priority 2002, published 2003).
